Measured values: patent publication US11591297B2, “Compound having PD-L1 expression-suppressing action” (TOHOKU UNIVERSITY, priority 2019, dated 2023)

What follows are compounds tested on human PD-L1 promoter (assay: Inhibitory effect of luciferase expression under control of PD-L1 promoter (A549/PD-L1luc luciferase assay, corrected by total protein)). Details: Homo sapiens; A549/PD-L1luc cells, 48±4 hours, RLU corrected by total protein amount; read-out: IC50 (50% inhibition value of luciferase expression).
Type: cell-based
Excerpt: A reporter vector, pPD-L1luc obtained by the insertion of a human PD-L1 promoter sequence (−2097 to 51) into the multiple cloning site of pGL-3 vector basic (Promega) expresses luciferase under the control of PD-L1 promoter when transfected into animal cells. The pPD-L1luc was transfected into a human non-small cell lung cancer-derived cell line A549 together with pPUR (Clontech) that expresses a puromycin resistance gene (puromycin-N-acetyl-transferase gene), and then cells expressing luciferase which could grow in a puromycin-supplemented medium were selected. The selected cells were named “A549/PD-L1luc cells” and used for luciferase assay as described below.
A test compound was added into a culture liquid containing A549/PD-L1luc cells to observe the influence of the test compound on the amount of luciferase expressed in the cells. Here, it can be considered that when the test compound has a cell cytotoxicity or cell growth inhibitory effect, the total expression level of luciferase is recued due to a reduction in the number of living cells that depends on the concentration of the test compound, and thus the inhibitory effect of luciferase expression under the control of PD-L1 promoter of the test compound cannot be properly evaluated.
A549/PD-L1luc cells were suspended in DMEM containing 10% fetal calf serum (FCS) and 1% penicillin/streptomycin (P/S) (hereinafter, referred to as “DMEM medium”) at 3×10^4 cells/mL to obtain a cell suspension, and the cell suspension was dispensed into each well of a 96-well plate in an amount of 100 μL. In order to perform the assay in triplicate, 3 wells were prepared for control group, and 3 wells were prepared for test compound-treated groups at each concentration. After the dispensation, the 96-well plate was incubated in a CO2 incubator (at 37° C. and 5% CO2) for 24±4 hours.
Each compound of Examples 1 to 6 and Comparative Example 1 was dissolved in dimethylsulfoxide (DMSO) to obtain 50 mmol/L of a compound solution, and the compound solution was stored at −80° C. The compound solution was diluted with DMSO in 2-fold dilution series (usually, in the range of 0.04 mmol/L to 10 mmol/L) to prepare test compound solutions whose concentration varied by two fold for luciferase assay.
Each solution of only DMSO (control) and the diluted test compound (sample) was dispensed into each well containing the cell suspension in an amount of 0.5 μL (200-fold dilution). The solution in each well was mixed with a vortex mixer, and then the 96-well plate was incubated in a CO2 incubator (at 37° C. and 5% CO2) for 48±4 hours. Luciferase Assay Substrate (hereinafter, referred to as “LAS”) supplied in Luciferase Assay Systems (Promega: Cat #E1500) was dissolved in Luciferase Assay Buffer (LAB) to prepare a luciferase reagent. 5× Cell Culture Lysis Reagent (hereinafter, referred to as “CCLR”) was diluted by 5 times with water to prepare 1×CCLR.
After the incubation for 48±4 hours, the medium in each well was completely removed, and 1×CCLR was dispensed into each well in an amount of 50 μL. The plate was allowed to stand at room temperature for 30 minutes, and then 1×CCLR in each well was used as an assay sample for luciferase and total protein amount. The luciferase reagent (100 μL) was placed in a tube for chemiluminescence measurement assay, and the assay sample (20 μL) was added into the tube and mixed with the luciferase reagent to measure chemiluminescence (Relative Luminescence Intensity: RLU) using GloMax 20/20 (Promega).
The above-mentioned assay sample (10 μL) was diluted by 10 times with water (90 μL). Each calibration curve sample was prepared by diluting the BSA solution with water as described in Table 1.
BCA reagent A and BCA reagent B (50:1) supplied in a kit for protein assay were mixed to prepare Working Reagent. Each of the calibration curve samples (Vials I to VI) and the 10-fold diluted assay samples was dispensed into each well of a 96-well plate in an amount of 25 μL, respectively. […]

| Compound | IC50 [nM] |
| --- | --- |
| O=C(Nc1ccc(Oc2ccc(S(F)(F)(F)(F)F)cc2)cc1)C1CCCN(C(=O)c2ccc([N+](=O)[O-])cc2)C1 (stereo not shown) [Example 5, 1-(4-Nitrobenzoyl)-N-(4-(4-(pentafluorosulfanyl)phenoxy)phenyl)piperidine-3-carboxamide] | 620 |
| O=C(Nc1ccc(Oc2ccc(C(F)(F)F)cc2)cc1)C1CCCN(C(=O)c2ccc([N+](=O)[O-])cc2)C1 (stereo not shown) [Example 2, 1-(4-Nitrobenzoyl)-N-(4-(4-(trifluoromethyl)phenoxy)phenyl) piperidine-3-carboxamide] | 1300 |
| COc1cc(C(=O)N2CCCC(C(=O)Nc3ccc(Oc4ccc(S(F)(F)(F)(F)F)cc4)cc3)C2)ccc1O (stereo not shown) [Example 6, 1-(4-Hydroxy-3-methoxybenzoyl)-N-(4-(4-(pentafluorosulfanyl)phenoxy)phenyl)piperidine-3-carboxamide] | 610 |
| COc1cc(C(=O)N2CCCC(C(=O)Nc3ccc(Oc4ccc(C(F)(F)F)cc4)cc3)C2)ccc1O (stereo not shown) [Example 3, 1-(4-Hydroxy-3-methoxybenzoyl)-N-(4-(4-(trifluoromethyl)phenoxy)phenyl)piperidine-3-carboxamide] | 610 |
